{"source": "patent US20170022147A1", "about": "“FUMARATE COMPOUNDS, PHARMACEUTICAL COMPOSITIONS THEREOF, AND METHODS OF USE” (priority 2015, published 2017)", "origin": "cited, not measured here"}
{"molecule": "COC(=O)/C=C/C(=O)OC", "note": "[DMF, dimethylfumarate]", "values": [{"measurement": "aqueous solubility", "result": "poor"}]}
